# Experimental data from patent publication US20240239775A1, “FXR REGULATOR, PREPARATION METHOD THEREFOR, PHARMACEUTICAL COMPOSITION THEREOF AND USE THEREOF” (QINGDAO RUIJI MEDICAL TECHNOLOGY CO., LTD., priority 2021, published 2024).
# Target: T1, FXR (Homo sapiens, UniProt Q96RI1)
# T1 construct: 5 μL of 20 nM FXR-LBD Complete Coregulator buffer G; purchased ThermoFisher PV4833
# T1 sequence (Q96RI1 262-486 limits assumed): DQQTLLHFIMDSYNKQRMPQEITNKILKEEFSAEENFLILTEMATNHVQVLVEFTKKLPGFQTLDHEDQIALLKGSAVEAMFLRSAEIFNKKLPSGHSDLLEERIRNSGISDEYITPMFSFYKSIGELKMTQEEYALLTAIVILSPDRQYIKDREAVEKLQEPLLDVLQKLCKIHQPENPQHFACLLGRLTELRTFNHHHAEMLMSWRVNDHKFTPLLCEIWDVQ
# Test: FXR antagonist screening by TR-FRET (LanthaScreen TR-FRET FXR co-activation assay kit)
# Assay type: biochemical
# Conditions: Table 1.1, FXR antagonistic activity; TR-FRET with CDCA; geometric means of at least two independent runs
# In short: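 FXR-LBD (20 nM working solution) mixed with compound, CDCA (200 μM working solution) as agonist, Fluorescein-SRC2-2 and Tb-anti-GST antibody in Coregulator buffer G; 10 h at room temperature. Coactivator recruitment read by TR-FRET, triplicate wells.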
row,Compound,IC50 [µM]
1,"CCOC(=O)c1oc2ccc(S(=O)(=O)N(CCc3ccccc3)Cc3ccc(C(F)(F)F)cc3)cc2c1C [Example M4-32, ethyl 3-methyl-5-(N-(4-trifluoromethylbenzyl)-N-phenethylsulfamoyl)benzofuran-2-carboxylate]",50 to 100
2,"CCOC(=O)c1oc2ccc(S(=O)(=O)N(CCc3ccccc3)Cc3ccc(C#N)cc3)cc2c1C [Example M4-33, ethyl 3-methyl-5-(N-(4-cyanobenzyl)-N-phenethylsulfamoyl)benzofuran-2-carboxylate]",50 to 100
3,"CCOC(=O)c1oc2ccc(S(=O)(=O)N(CCc3ccccc3)Cc3ccc(OC(F)(F)F)cc3)cc2c1C [Example M4-34, ethyl 3-methyl-5-(N-(4-(trifluoromethoxy)benzyl)-N-phenethylsulfamoyl)benzofuran-2-carboxylate]",50 to 100
4,"CCOC(=O)c1oc2ccc(S(=O)(=O)N(CCc3ccccc3)Cc3ccc(SC(F)(F)F)cc3)cc2c1C [Example M4-35, ethyl 3-methyl-5-(N-(4-(trifluoromethylthio)benzyl)-N-phenethylsulfamoyl)benzofuran-2-carboxylate]",50 to 100
5,"CCOC(=O)c1oc2ccc(S(=O)(=O)N(CCc3ccccc3)Cc3ccc(C(C)C)cc3)cc2c1C [Example M4-36, ethyl 3-methyl-5-(N-(4-isopropylbenzyl)-N-phenethylsulfamoyl)benzofuran-2-carboxylate]",50 to 100
6,"CCOC(=O)c1oc2ccc(S(=O)(=O)N(CCc3ccccc3)Cc3ccc(C(C)(C)C)cc3)cc2c1C [Example M4-37, ethyl 3-methyl-5-(N-(4-(tert-butyl)benzyl)-N-phenethylsulfamoyl)benzofuran-2-carboxylate]",50 to 100
7,"CCOC(=O)c1oc2ccc(S(=O)(=O)N(CCc3ccccc3)Cc3ccc(C(C)=O)cc3)cc2c1C [Example M4-38, ethyl 3-methyl-5-(N-(4-acetylbenzyl)-N-phenethylsulfamoyl)benzofuran-2-carboxylate]",50 to 100
8,"CCOC(=O)c1oc2ccc(S(=O)(=O)N(CCc3ccccc3)Cc3ccc(C(=O)OC)cc3)cc2c1C [Example M4-39, ethyl 3-methyl-5-(N-(4-(methoxycarbonyl)benzyl)-N-phenethylsulfamoyl)benzofuran-2-carboxylate]",50 to 100
9,"CCOC(=O)c1oc2ccc(S(=O)(=O)N(CCc3ccccc3)Cc3ccc(C(=O)OC(C)(C)C)cc3)cc2c1C [Example M4-40, ethyl 3-methyl-5-(N-(4-(tert-butoxycarbonyl)benzyl)-N-phenethylsulfamoyl)benzofuran-2-carboxylate]",50 to 100
10,"CCOC(=O)c1oc2ccc(S(=O)(=O)N(CCc3ccccc3)Cc3ccc(CC(=O)OC)cc3)cc2c1C [Example M4-41, ethyl 3-methyl-5-(N-(4-(2-methoxy-2-oxoethyl)benzyl)-N-phenethylsulfamoyl)benzofuran-2-carboxylate]",50 to 100
11,"CCOC(=O)c1oc2ccc(S(=O)(=O)N(CCc3ccccc3)Cc3ccc(/C=C/C(=O)OC)cc3)cc2c1C [Example M4-42, (E)ethyl-3-methyl-5-(N-(4-(3-methoxy-3-oxoprop-1-en-1-yl)benzyl)-N-phenethylsulfamoyl)benzofuran-2-carboxylate]",50 to 100
12,"CCOC(=O)c1oc2ccc(S(=O)(=O)N(CCc3ccccc3)Cc3cccc4ccccc34)cc2c1C [Example M4-43, ethyl 3-methyl-5-(N-(naphthalen-1-ylmethyl)-N-phenethylsulfamoyl)benzofuran-2-carboxylate]",50 to 100
13,"CCOC(=O)c1oc2ccc(S(=O)(=O)N(CCc3ccccc3)Cc3cccc4cccnc34)cc2c1C [Example M4-44, ethyl 3-methyl-5-(N-(quinolin-8-ylmethyl)-N-phenethylsulfamoyl)benzofuran-2-carboxylate]",50 to 100
14,"CCOC(=O)c1oc2ccc(S(=O)(=O)N(CCc3ccccc3)Cc3ccc4ccccc4c3)cc2c1C [Example M4-45, ethyl 3-methyl-5-(N-(naphthalen-2-ylmethyl)-N-phenethylsulfamoyl)benzofuran-2-carboxylate]",50 to 100
15,"CCOC(=O)c1oc2ccc(S(=O)(=O)N(CCc3ccccc3)Cc3c(F)cccc3F)cc2c1C [Example M4-46, ethyl 3-methyl-5-(N-(2,6-difluorobenzyl)-N-phenethylsulfamoyl)benzofuran-2-carboxylate]",50 to 100
16,"CCOC(=O)c1oc2ccc(S(=O)(=O)N(CCc3ccccc3)Cc3c(F)cccc3Cl)cc2c1C [Example M4-47, ethyl 3-methyl-5-(N-(2-fluoro-6-chlorobenzyl)-N-phenethylsulfamoyl)benzofuran-2-carboxylate]",50 to 100
17,"CCOC(=O)c1oc2ccc(S(=O)(=O)N(CCc3ccccc3)Cc3c(F)cccc3C(F)(F)F)cc2c1C [Example M4-48, ethyl 3-methyl-5-(N-(2-fluoro-6-(trifluoromethyl)benzyl)-N-phenethylsulfamoyl)benzofuran-2-carboxylate]",50 to 100
18,"CCOC(=O)c1oc2ccc(S(=O)(=O)N(CCc3ccccc3)Cc3c(Cl)cccc3Cl)cc2c1C [Example M4-49, ethyl 3-methyl-5-(N-(2,6-dichlorobenzyl)-N-phenethylsulfamoyl)benzofuran-2-carboxylate]",50 to 100
19,"CCOC(=O)c1oc2ccc(S(=O)(=O)N(CCc3ccccc3)Cc3c(C)cccc3C)cc2c1C [Example M4-50, ethyl 3-methyl-5-(N-(2,6-dimethylbenzyl)-N-phenethylsulfamoyl)benzofuran-2-carboxylate]",50 to 100
20,"CCOC(=O)c1oc2ccc(S(=O)(=O)N(CCc3ccccc3)Cc3ccc(F)cc3F)cc2c1C [Example M4-51, ethyl 3-methyl-5-(N-(2,4-difluorobenzyl)-N-phenethylsulfamoyl)benzofuran-2-carboxylate]",50 to 100
21,"CCOC(=O)c1oc2ccc(S(=O)(=O)N(CCc3ccccc3)Cc3ccc(Cl)cc3F)cc2c1C [Example M4-52, ethyl 3-methyl-5-(N-(2-fluoro-4-chlorobenzyl)-N-phenethylsulfamoyl)benzofuran-2-carboxylate]",50 to 100
22,"CCOC(=O)c1oc2ccc(S(=O)(=O)N(CCc3ccccc3)Cc3ccc(Br)cc3F)cc2c1C [Example M4-53, ethyl 3-methyl-5-(N-(2-fluoro-4-bromobenzyl)-N-phenethylsulfamoyl)benzofuran-2-carboxylate]",50 to 100
23,"CCOC(=O)c1oc2ccc(S(=O)(=O)N(CCc3ccccc3)Cc3ccc(C#N)cc3F)cc2c1C [Example M4-54, ethyl 3-methyl-5-(N-(2-fluoro-4-cyanobenzyl)-N-phenethylsulfamoyl)benzofuran-2-carboxylate]",50 to 100
24,"CCOC(=O)c1oc2ccc(S(=O)(=O)N(CCc3ccccc3)Cc3ccc(C(F)(F)F)cc3F)cc2c1C [Example M4-55, ethyl 3-methyl-5-(N-(2-fluoro-4-(trifluoromethyl)benzyl)-N-phenethylsulfamoyl)benzofuran-2-carboxylate]",50 to 100
25,"CCOC(=O)c1oc2ccc(S(=O)(=O)N(CCc3ccccc3)Cc3ccc(F)cc3Cl)cc2c1C [Example M4-56, ethyl 3-methyl-5-(N-(2-chloro-4-fluorobenzyl)-N-phenethylsulfamoyl)benzofuran-2-carboxylate]",50 to 100
26,"CCOC(=O)c1oc2ccc(S(=O)(=O)N(CCc3ccccc3)Cc3ccc(F)cc3C(F)(F)F)cc2c1C [Example M4-57, ethyl 3-methyl-5-(N-(2-(trifluoromethyl)-4-fluorobenzyl)-N-phenethylsulfamoyl)benzofuran-2-carboxylate]",50 to 100
